Source: patent US20170342312A1, “COMPOSITION AND METHOD FOR VISCOSITY CONTROL IN DELIVERY APPLICATIONS USING SUBSEA UMBILICALS” (BAKER HUGHES, A GE COMPANY, LLC, priority 2016, published 2017)
“And” between values parts separate entries of the source, which are not always exact repeats. Equal values may be shown once. Read-outs that look alike come from different tables or passages of the source.

Columns and labels:
[1] = Solvent viscosity at 20° C.; assay type: physicochemical; details: 20° C./1 Bar
Solvent flash point = assay type: physicochemical
Solvent freezing point = assay type: physicochemical
[2] = at 20° C.; background statement; cited from earlier work
[3] = Corrosion rate, autoclave tests; details: corrosion values of Tables 2 and 3
Protocol: The corrosion rates shown in Table 2 were obtained using autoclave tests at 80° C., a partial pressure of CO2 of 0.75 bar, a brine/hydrocarbon ratio of 99 to 1 and a shear stress of 60 Pa.

[4] = according to MSDS; cited from earlier work
[5] = according to MSDS; cited from earlier work; remark: listed apart in the source
fish = details: according to MSDS; cited from earlier work
invertebrates = details: in vivo; cited from earlier work
algae = details: according to MSDS; cited from earlier work
[6] = listed as ethylene glycol n-butyl ether acetate

SMILES | Viscosity [1] [cP] | Flash Point (Solvent flash point) [°C] | Freezing Point (Solvent freezing point) [°C] | other results
CO [Methanol] | 0.59 | 12 | −97.8 | –
CC(O)CO (stereo not drawn) [Propylene Glycol] | 55.0 | 99.0 | −59.0 | –
O [Water] | 0.895 | – | 0 | –
OCCO [Monoethylene Glycol] | 17.3 | 116 | −13.0 | Viscosity [2]: 17 cP
CC(C)O [Isopropanol] | 2.1 | 14 | −89.0 | –
CCCCOCCOC(C)=O [Ethylene Glycol N-Butyl Ether Acetate, ethylene glycol n-butyl ether acetate] | 1.81 | 78 | −64.0 | Viscosity [1, 6]: 1.79 cP and 1.81 cP; Flash Point (Solvent flash point; [6]): about 78 °C; Freezing Point (Solvent freezing point; [6]): about −64 °C; effect of solvent on performance of the corrosion inhibitors [3]: did not significantly affect the performance of the corrosion inhibitors; biodegradable in seawater [4]: 77-90%; Log Pow bioaccumulation potential [5]: less than 3; LC50 for fish (fish): > 10 µg/mL; EC50 for invertebrates (invertebrates): > 10 µg/mL; EbC50 for algae (algae): > 10 mg/L
CCCCOCCO [Butyl Cellosolve ™, ethylene glycol monobutyl ether] | 2.9 | 67.0 | −75.0 | –
